Changes are numbered by the printed parent chain.
How the values were obtained:
Format in all cases: cell-based
GPR139 L87A2x64 = biological target: T1, GPR139 L87A2x64 (Homo sapiens, UniProt Q6DWJ6, L87A); assay: Fluo-4 Ca2+-assay, GPR139 mutant L87A
T1 construct: mGluR5 signal peptide (N); expressed in transfected cells; host or cells: HEK293
T1 sequence (Q6DWJ6 2-353 L87A limits assumed): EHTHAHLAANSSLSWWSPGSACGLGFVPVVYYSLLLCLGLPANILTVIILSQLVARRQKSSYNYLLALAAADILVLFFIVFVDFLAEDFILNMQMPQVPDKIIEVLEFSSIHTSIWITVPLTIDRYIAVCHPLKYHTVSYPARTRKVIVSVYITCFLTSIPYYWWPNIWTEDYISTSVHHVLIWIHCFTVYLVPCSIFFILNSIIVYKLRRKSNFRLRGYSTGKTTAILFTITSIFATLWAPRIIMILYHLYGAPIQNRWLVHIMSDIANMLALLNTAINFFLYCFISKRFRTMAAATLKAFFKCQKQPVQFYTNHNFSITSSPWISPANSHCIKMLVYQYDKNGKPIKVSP
Excerpt: (§1) To study the influence of specific amino acids in the predicted binding pocket on receptor function, the desired mutations were introduced into an N-terminally c-myc-tagged wild type human GPR139 (NM_001002911.3) in the pEGFP-N1 vector (BD Biosciences)[32], [33]. As previously described, these plasmids carry the signal peptide of mGluR5 to promote cell surface expression followed by a c-myc epitope to enable detection of total and surface expression by ELISA, followed by an engineered MluI and NotI site for easy insertion of the receptor of interest. Furthermore, the start-codon in the GPR139 sequence was deleted to ensure c-myc-tagging. Mutagenesis was designed in Serial Cloner 2.6 (© Franck Perez [SerialBasics]) and carried out by GenScript (USA). All mutated residues are illustrated in Supplementary Fig. 1b. An untagged GPR139(WT) in pEGFP-N1 was also generated to ensure that the c-myc-tag had no influence on GPR139(WT) function.
(§2) All GPR139 mutants were transfected into HEK293 cells. The HEK293 cells were grown in Dulbecco’s modified Eagle’s medium (DMEM) (Gibco, 41965) supplemented with 10% dialyzed fetal bovine serum (Gibco, 26400, United States origin), 100 units/mL penicillin and 100 μg/mL streptomycin (Gibco, 15140). HEK293 cells were reverse transfected using Lipofectamine2000 (Invitrogen). […]
(§3) The Ca^2+ measurements were preformed using the Fluo-4 NW Calcium Assay Kit (Invitrogen, Molecular Probes, F36206) as previously described. […] Intracellular calcium changes were recorded as indicated on either a NOVOstar (BMG Labtech) at 37 °C with an excitation filter of 485 nm and an emission filters 520 nm or a FlexStation 3 Benchtop Multi-Mode Microplate Reader (Molecular Devices) at 37 °C with an excitation wavelength of 485 nm and emission of 525 nm.
(§4) All pharmacological data have been analyzed by using Prism 6.0 (GraphPad Software Inc., San Diego). […] Changes in potency (pEC50) and span of myc-GPR139(WT) in comparison to untagged GPR139(WT) was statistically analyzed with a paired t-test and significance was accepted at p < 0.05. […]

GPR139 E108Q3x32 = biological target: T2, GPR139 E108Q3x32 (Homo sapiens, UniProt Q6DWJ6, E108Q); assay: Fluo-4 Ca2+-assay, GPR139 mutant E108Q
T2 construct: mGluR5 signal peptide (N); expressed in transfected cells; host or cells: HEK293
T2 sequence (Q6DWJ6 2-353 E108Q limits assumed): T1 sequence (Q6DWJ6 2-353 L87A limits assumed) with A86L, E107Q
Excerpt: as §1, §2, §3, §4

GPR139 H113A3x37 = biological target: T3, GPR139 H113A3x37 (Homo sapiens, UniProt Q6DWJ6, H113A); assay: Fluo-4 Ca2+-assay, GPR139 mutant H113A
T3 construct: mGluR5 signal peptide (N); expressed in transfected cells; host or cells: HEK293
T3 sequence (Q6DWJ6 2-353 H113A limits assumed): T1 sequence (Q6DWJ6 2-353 L87A limits assumed) with A86L, H112A
Excerpt: as §1, with “Mutagenesis was designed in Serial Cloner 2.6 (© Franck Perez [SerialBasics]) and carried out by GenScript (USA). All mutated residues are illustrated in Supplementary Fig. 1b. An untagged GPR139(WT) in pEGFP-N1 was also generated to ensure that the c-myc-tag had no influence on GPR139(WT) function.” left out
as §3, §4

## COc1cc(OC)cc(C(=O)NNC(=O)Nc2cccc3ccccc23)c1 [Compound 1a]
GPR139 L87A2x64; L87A mutant
  EC50: 479 nM
GPR139 L87A2x64; L87A mutant versus WT (reduced surface expression)
  change of potency: equipotent
GPR139 L87A2x64; L87A, normalized to buffer (0%) and 8 µM 1a (100%)
  Emax: 75 ± 17%
GPR139 E108Q3x32; E108Q mutant
  EC50: 1510 nM
GPR139 E108Q3x32; E108Q mutant versus WT
  potency reduction: 6 fold
GPR139 E108Q3x32; E108Q, normalized to buffer (0%) and 8 µM 1a (100%)
  Emax: 217 ± 21%
GPR139 H113A3x37; H113A mutant
  EC50: 851 nM
GPR139 H113A3x37; H113A, normalized to buffer (0%) and 8 µM 1a (100%)
  Emax: 97 ± 9%

From publication PMC5430874 (Scientific Reports, 2017)
